Source: patent US11324217B2, “Preparation method and application of polyketides bearing the trans-fused decalin skeleton” (QINGDAO AGRICULTURAL UNIVERSITY, priority 2019, dated 2022)

How the values were obtained:
[1] = test system: Echinochloa crusgalli seedlings; test: Herbicidal activity test (PPA method), growth inhibition of radicles of weed seedlings; type: in vivo; conditions: Echinochloa crus-galli, 48 h, radicle length after 2 days in agar, read-out: Growth inhibition rates (%) to radicles of Echinochloa crusgalli seedlings; for inhibition at 2.5 µg/mL: 2.5 μg/mL; for inhibition at 5 µg/mL: 5 μg/mL; for inhibition at 10 µg/mL: 10 μg/mL
Description: The method of grinded plant tissue powder mixed with agar (PPA method), established by Luo Xiaoyong, et al. (Journal of Qingdao Agricultural University, 2007, 24: 267-270) is used to quickly determine the herbicidal activity of compounds. It has the advantages of high sensitivity, easy operation, good repeatability, and large-throughput screening. It is also easy to observe the growth status of indicator plants. Luo Xiaoyong used this method to quickly determine the herbicidal activity of the leaves of 40 garden plants. Zhang Lijuan (Plant Protection, 2016, 42: 63-66) and Su Fansheng (Applied Chemistry, 2014, 31: 290-295) quickly determined the herbicidal activity of corn stalks and imidazole compounds by the PPA method with Echinochloa crusgalli as the test weed. Zhang Yun (Journal of Microbiology, 2015, 55: 292-298) and Li Shuai (Journal of Agricultural and Food Chemistry, 2014, 62: 8997-9001) studied the inhibitory effect of microbial secondary metabolites on the root growth of Amaranthus retroflexus by using Amaranthus retroflexus as the test weed.
Weed seeds were first sterilized with 0.2% sodium hypochlorite for 15 min, then washed repeatedly with sterile distilled water, soaked for 4-6 h, and germinated for 12 h in a medical tray with sterile wet filter paper in a dark place.
The compound to be tested was dissolved in dimethyl sulfoxide (DMSO) to obtain a 4 mg/mL solution, and the 4 mg/mL solution was then diluted with 50% DMSO aqueous solution to different concentrations for later use.
1 mL of the sample solution and 99 mL of sterile agar aqueous solution were mixed well, and poured into three 25 mL small beakers to be condensed. Needle-nose tweezers were used to insert 5 small holes on the surface of the condensed agar, the germinated test weed seedlings with 4-5 radicles were clamped separately and inserted gently and vertically into the small holes. Each beaker had five pieces of such agar and the operation was repeated for three times. Then, all beakers were sealed with tin foil and placed in a sterilized small carton, and the sterilized small carton was then placed in an artificial climate box for shading culture for 2 days. The artificial climate box set an automatic cycle of 14 h lighting (25° C.) and 10 h shading (20° C.), and the relative humidity in the box was set at 60%. After 2 days, the lengths of the radicle and hypocotyl were investigated to calculate the weed growth inhibition rate.
The calculation equations were as follows (Chinese Agricultural Science Bulletin, 2013, 29: 177-182): Growth=length of radicle (hypocotyl) after treatment−length of radicle (hypocotyl) before treatment; Inhibition rate (%)=[(average growth of control−average growth of treatment)/average growth of control]×100%.

[2] = test system: Brine shrimp; test: Lethal activity of Brine shrimp; type: in vivo; conditions: concentration of 500 μg/mL; 24 h incubation at room temperature
Method: Brine shrimp is an aquatic animal that is highly sensitive to toxic substances. It can be used as a model organism to preliminary evaluate the toxic effects of compounds on the environment. Masi, M. et al. used Brine shrimp to preliminary evaluate the toxicity of the herbicidal active compounds Colletochlorins E and F (Journal of Agricultural and Food Chemistry, 2017, 65: 1124-1130).
100 mg of Brine shrimp eggs were placed in a 500 mL beaker, 400 mL of artificial seawater was added, the Brine shrimp eggs were slowly inflated with an air pump and hatched at room temperature for 24 h, the egg shells and unhatched eggs were removed, and the Brine shrimps were further incubated for 24 h.
The compound to be tested was dissolved in DMSO to obtain a 20 mg/mL mother liquor, and the mother liquor was then sequentially diluted twice to obtain 10, 5 and 2.5 mg/mL solutions for later use.
195 μL of artificial seawater containing 10-15 Brine shrimps were added into each well of a 96-well cell culture plate to make a test culture plate. […] After incubation at room temperature for 24 h, the number of Brine shrimp deaths was counted under a binocular dissecting microscope. […]

Q: For `CCOCN(C(=O)CCl)c1c(C)cccc1CC` [Acetochlor, reference compound], which inhibition at 2.5 µg/mL [1] is on record?
A: 54.8 ± 1.3%

Q: And the inhibition at 5 µg/mL [1]?
A: 65.6 ± 1.8%

Q: And the inhibition at 10 µg/mL [1]?
A: 76.1 ± 1.4%

Q: For `C[C@H]1CC[C@H]2[C@@H](C=C[C@@](C)(O)[C@]2(C)C(=O)CCOC(=O)Cc2ccc(O)c(O)c2)C1` [Compound 2], which “lethal activity of Brine shrimp” value [2] is on record?
A: do not exhibit the lethal activity

Q: What about the inhibition at 2.5 µg/mL [1] of the same compound?
A: 41 ± 0.8%

Q: What about the inhibition at 5 µg/mL [1] of the same compound?
A: 55.4 ± 1.2%

Q: And the inhibition at 10 µg/mL [1]?
A: 79.6%

Q: With `CC1=C[C@H](O)[C@H]2C[C@@H](C)CC[C@@H]2[C@@]1(C)C(=O)CCO` [Compound 1] as the compound, how does the “lethal activity of Brine shrimp” value [2] read?
A: do not exhibit the lethal activity

Q: What about the inhibition at 2.5 µg/mL [1] of the same compound?
A: 52.7 ± 1%

Q: What about the inhibition at 5 µg/mL [1] of the same compound?
A: 64.7 ± 0.9%

Q: What about the inhibition at 10 µg/mL [1] of the same compound?
A: 81.5%
